Measured values as given in patent publication US20160175224A1, “ANTIPERSPIRANT COMPOSITION” (priority 2014, published 2016).

System: subjects' underarms
Assay: In vivo study of eight-hour antiperspirant efficacy (FDA Guidelines for Effectiveness Testing of OTC Antiperspirant Drug Products, hot room, weighed pads)
Set-up: species or system human
Details: for Antiperspirant activity against FDA Guidelines success criteria (minimum of 20% sweat reduction in at least 50% volunteers): eight-hour efficacy, day 30 of application period; for % of subjects with reduction in relation to control / Average % of sweat reduction (mg): roll-on compositions of Examples 7-9 applied daily to one underarm for 30 days, eight hours after, hot room 37.8° C.; for % of subjects with reduction in relation to control: other underarm untreated control, 30-40% RH, 80 minutes, fifteen subjects per composition; for Average % of sweat reduction (mg): relative to untreated control underarm, pad weights
Method: An in vivo study of the eight-hour antiperspirant efficacy of the compositions of Examples 7, 8 and 9 was performed as follows using the US FOOD AND DRUG ADMINISTRATION Guidelines for Effectiveness Testing of OTC Antiperspirant Drug Products, 2003. Example 7 was comparative, as indicated above.
Fifteen subjects were used to test each composition. Subjects were first subjected to a 21-day conditioning period, which began with a 14 day wash out period. During 14 day wash out period, the subjects used a standard bar soap and bacteriostatic deodorant supplied by the institute running the study. […] Following this, from day 15 to day 21 the subjects were instructed to use only standard soap and discontinue the bacteriostatic deodorant.
During the conditioning period, subjects were instructed and supervised by a trained technician to wash their underarms according to the following procedure: a) wash one of the underarms for 10 seconds with an aqueous solution of standard soap 2.0%; b) rinse thoroughly with running water until the soap is completely removed; c) dry the underarm with a paper towel; and d) repeat the procedure with the other underarm.
After the wash out period was completed, each subject was checked for unauthorized use of antiperspirant products during the conditioning period using a cotton swab in the underarms.
Next, a 30 day application period began. 150 cm^2, randomly distributed areas were marked on each subjects' underarm. Test samples were then applied to one underarm of each subject, while the other underarm was untreated as a control every day during the 30 day application period. Subjects waxed or shaved their underarms every Friday evening.
On day 30 of the 30 day application period, each subject was provided with a 100% cotton t-shirt previously washed with water and neutral soap without fragrance and again washed only with water. The subjects were instructed to wear the T-shirts for eight hours.
After eight hours, the subjects were placed in a room at 37.8° C.±1° C. and relative humidity between 30% and 40% for 80 minutes. After 40 minutes in the hot room, pads previously weighed and stored in closed polyethylene bags were removed from the bags and placed immediately onto the subjects' underarms, and then replaced every 20 minutes. Subjects ingested 200 mL of water when entering the hot room and also 40 minutes later in order to maintain the internal level of hydration, allowing the sweat to flow freely and evidencing only the effects of the formulation of the product tested. The initial 40 minute period was considered as an acclimatization period.
Used pads were collected every 20 minutes and weighed. The weights of the pads pre- and post-use were compared according to the FDA Guidelines using statistical analysis with the Wilcoxon Signed Rank test (FDA protocol) and the Student-t test paired with the unilateral hypothesis of improvement for sweating assessment. The confidence level considered in the comparative analysis was 95%. Software: XLSTAT 2013 and MINITAB 14.

Row | Substance | Antiperspirant activity against FDA Guidelines success criteria (minimum of 20% sweat reduction in at least 50% volunteers) | % of subjects with reduction in relation to control | Average % of sweat reduction (mg) | Average % of sweat reduction (mg) (listed as acetyl hexapeptide-8)
1 | acetyl octapeptide-3 | confirms antiperspirant activity | 81.8% | 20.7% | –
2 | acetyl hexapeptide-8 [reference compound] | did not meet success criteria | 66.7% | 8.0% | 8.0%
3 | dipeptide diaminobutyroyl benzylamide diacetate | confirms antiperspirant activity | 92.3% | 25.6% | –
